From patent US20250222065A1, “CYCLIC POLYPEPTIDE FOR THE TREATMENT OF PHA TYPE 1B” (priority 2015, published 2025)

Assays:
[1] = tested on: WT αβγ-hENaC, WT δβγ-hENaC or mutant hENaC; experiment: Amiloride block of whole-cell sodium current in transfected HEK-293 cells; assay type: cell-based, human; conditions: amiloride 10 μM, HEK-293 whole-cell sodium current
Description: Concentration-response curves were plotted, and EC50 values and Hill coefficients were determined using Microcal Origin 7.0. […] Finally, amiloride was added to enable estimation of the peptide-induced increase in amiloride-sensitive Na+ current. […] Amiloride was used at 10 μM for WT αβγ-hENaC, WT δβγ-hENaC or mutant hENaC; these concentrations yielded greater than 95% hENaC inhibition. Only cells with clear amiloride response were included in data analysis.

αβγV543fs-hENaC = experiment: Whole cell patch clamp, HEK-293 cells expressing PHA type IB frameshift mutant αβγV543fs-hENaC; assay type: cell-based, human; conditions: HEK-293, peptide concentration 220 nM, mean ± SE, n = 5; no peptide: loss-of-function; Table 2
Description: The ENaC-activating properties of cyclic peptides are tested electrophysiologically in vitro using whole cell and […] patch clamp techniques Hazemi et al, 2010; Tzotzos et al, 2013; Shabbir et al, 2013). A whole call patch clamp assay is used to measure the induced amiloride-sensitive Na+ current, calculate concentration-response curves and thus estimate the potency measured as effective concentration at half maximum response (EC50), for cyclic peptides.
In addition, mutant delta ENaC subunits were also constructed by site-directed mutagenesis, containing homologous mutations to those observed in conserved positions in the other three ENaC subunits.
Point mutations were introduced into cDNA encoding alpha, beta, gamma and delta ENaC using a commercially available site-directed mutagenesis kit (QuikChange Lightning Site-Directed Mutagenesis Kit; Agilent Technologies). […]
(§1) Whole cell currents were recorded as previously described (Shabbir et al, 2013).
(§2) Data represent the mean ±S.E. unless otherwise stated; experiments were performed on three to seven batches of independently transfected cells in the HEK-293 heterologous expression system. Statistical significance between different groups was determined using an unpaired, two-tailed Student's t test using GraphPad Prism version 3.02 (GraphPad Software, San Diego). […]

[2] = tested on: PHA type IB mutant loss-of-function hENaC; experiment: Whole cell patch clamp, HEK-293 cells expressing PHA type IB mutant hENaCs (overall conclusions); assay type: cell-based, human; conditions: whole cell electrophysiological assay, versus absence of peptide
Description: In addition, mutant delta ENaC subunits were also constructed by site-directed mutagenesis, containing homologous mutations to those observed in conserved positions in the other three ENaC subunits. […]
as §1
Concentration-response curves were plotted, and EC50 values and Hill coefficients were determined using Microcal Origin 7.0. […]
After GOhm-seal (GΩ-seal) formation, and an equilibration period of 5 min, sodium current was recorded at Eh from —80 to +80 mV in 20 mV increments held for 1 min at each Eh.
as §2

[3] = molecular target: αβγV543fs-hENaC (human), P37088; experiment: cell-based or functional assay
αβG37Sγ-hENaC = αβG37Sγ-hENaC (human, UniProt P37088 1-669; P51168 1-640; P51170 1-649); experiment: cell-based or functional assay
αQ101Kβγ-hENaC = αQ101Kβγ-hENaC (human, UniProt P37088 1-669; P51168 1-640; P51170 1-649); experiment: cell-based or functional assay

Molecule: N=C(N)NC(=O)c1nc(Cl)c(N)nc1N [Amiloride, amiloride]
- hENaC inhibition [1]: greater than 95%

Molecule: Cyclo(4-aminobutanoic acid-GQRETPEGAEAKPWYD) (not fully specified; cyclized via 4-aminobutanoic acid) [AP318]
- Inward current measured (amiloride-sensitive current) (αβγV543fs-hENaC): 177.7 ± 6.5 pA
- Amiloride-sensitive sodium ion current through PHA-1B mutants in the presence of peptide [2]: significantly increased

B1: AP318, Cyclo(4-aminobutanoic acid-…) (peptide)
peptide: GQRETPEGAEAKPWYD
modifications: here or on the partner: N-terminal 4-aminobutanoic acid (GABA); cyclic: amide bond between the amino group of N-terminal 4-aminobutanoic acid and the side chain carboxyl group of the C-terminal aspartic acid
- Inward amiloride-sensitive current, whole cell patch clamp, HEK-293, peptide concentration 220 nM [3]: 178 pA

B2: AP318, Cyclo(4-aminobutanoic acid-GQRETPEGAEAKPWYD) (peptide)
peptide: GQRETPEGAEAKPWYD
modifications: N-terminal 4-aminobutanoic acid (GABA); cyclic: amide bond between the amino group of N-terminal 4-aminobutanoic acid and the side chain carboxyl group of the C-terminal aspartic acid
- Inward amiloride-sensitive current, whole cell patch clamp, HEK-293, peptide concentration 220 nM (αβG37Sγ-hENaC): 192 pA
- Inward amiloride-sensitive current, whole cell patch clamp, HEK-293, peptide concentration 220 nM (αQ101Kβγ-hENaC): 177 pA
